Assay results taken from patent US9776990B2, “Isoindolone derivatives” (AbbVie Inc., priority 2012, dated 2017).
pEC50: −log10 of the molar value. Marks after values point to notes of the source that are not given here.

Legend:
[1] = tested on: MX-1 human breast cancer xenograft; assay: Xenograft tumor growth inhibition assay, MX-1; format: in vivo, mice; settings: MX-1 xenograft; for % TGI (tumor growth inhibition): QDx14, based on day 38; for % TGD (tumor growth delay): QDx14, endpoint 1000 mm^3
Description: (§1) The effect of the compound of Example 40 to inhibit the growth of Ramos, OPM-2, MX-1, MV4-11, and HT1080 xenograft tumors was evaluated. Briefly, 0.5×10^6 human cancer cells (HT1080), 1×10^6 human cancer cells (Ramos), 5×10^6 human cancer cells (OPM-2, MV4-11) or 1:10 tumor brie (MX-1) (in S-MEM (MEM, Suspension, no Calcium, no Glutamine)) (Life Technologies Corporation) were inoculated subcutaneously into the right hind flank of female SCID or SCID-beige (MV4-11, HT1080) mice (Charles Rivers Labs) on study day 0. Compound was formulated in 2% EtOH, 5% Tween-80, 20% PEG-400, 73% HPMC (Ramos, OPM-2 and MX-1) or 5% DMSO, 5% EtOH, 30% PEG400, 60% Phosal 53 (MV4-11, HT1080). Administration of compound was initiated at the time of size match on day 8 (HT1080), day 17 (MX-1), or day 18 (Ramos, MV4-11, OPM-2). The tumors were measured by a pair of calipers twice a week starting at the time of size match and tumor volumes were calculated according to the formula V=L×W^2/2 (V: volume, mm^3; L: length, mm. W: width, m) Tumor volume was measured for the duration of the experiment until the mean tumor volume in each group reached an endpoint of >1000 mm^3.

786-0 = assay: Proliferation panel assay, 786-0; format: cell-based; settings: Homo sapiens, 120 h; RCC, 786-0, 5 days; read-out: Cellular Proliferation EC50
Description: (§2) The impact of compounds of the Examples on cancer cell proliferation was determined using the breast cancer cell line MX-1 (ATCC) in a 3-day proliferation assay. MX-1 cells were maintained in RPMI supplemented with 10% FBS at 37 C.° and an atmosphere of 5% CO2. For compound testing, MX-1 cells were plated in 96-well black bottom plates at a density of 5000 cells/well in 90 μl of culture media and incubated at 37° overnight to allow cell adhesion and spreading. Compound dilution series were prepared in DMSO via a 3-fold serial dilution from 3 mM to 0.1 μM. […]
(§3) Luminescence readings from the Cell Titer Glo assay were normalized to the DMSO treated cells and analyzed using the GraphPad Prism software with sigmoidal curve fitting to obtain EC50s. The minimum significant ratio (MSR) was determined to evaluate assay reproducibility (Eastwood et al., (2006) J Biomol Screen, 11: 253-261). The overall MSR was determined to be 2.1 and a moving MSR (last six run MSR overtime) has been <2.
(§4) The compound of Example 40 was tested for its impact on proliferation of a panel of cancer cell line types (with specific cell lines tested) as set out in (Table 2). […] Cell proliferation data were analyzed as described above in the MX-1 proliferation assay to obtain the EC50 for the compounds reported in Table 2.

EJ-1 = assay: Proliferation panel assay, EJ-1; format: cell-based; settings: EJ1, 120 h; Bladder, EJ-1, 5 days; read-out: Cellular Proliferation EC50
Description: as §2, §3, §4

Raji = assay: Proliferation panel assay, Raji; format: cell-based; settings: Homo sapiens, 120 h, Burkitt lymphoma, 5 days, read-out: Cellular Proliferation EC50
Description: as §2, §3, §4

[2] = tested on: HT1080 human fibrosarcoma xenograft; assay: Xenograft tumor growth inhibition assay, HT1080; format: in vivo, mice; settings: BID x 14, based on day 18
Description: as §1

SKM1 = assay: Proliferation panel assay, SKM1; format: cell-based; settings: Homo sapiens, SKM-1, 120 h; AML, SKM1, 5 days; read-out: Cellular Proliferation EC50
Description: as §2, §3, §4

BxPC3FP5 = assay: Proliferation panel assay, BxPC3FP5; format: cell-based; settings: 120 h; Pancreas, BxPC3FP5, 5 days; read-out: Cellular Proliferation EC50
Description: as §2, §3, §4

OPM2 = assay: Proliferation panel assay, OPM2; format: cell-based; settings: Homo sapiens, OPM-2, 120 h; Multiple Myeloma, OPM2, 5 days; read-out: Cellular Proliferation EC50
Description: as §2, §3, §4

A-375 = assay: Proliferation panel assay, A-375; format: cell-based; settings: Homo sapiens, 120 h; Melanoma, A-375, 5 days; read-out: Cellular Proliferation EC50
Description: as §2, §3, §4

[3] = tested on: breast cancer cell line MX-1; assay: MX-1 cell line proliferation assay (3-day, Cell Titer Glo); format: cell-based, human; settings: Homo sapiens, MX1, MX-1 cells, 72 hours, read-out: Cellular proliferation: EC50
Description: The impact of compounds of the Examples on cancer cell proliferation was determined using the breast cancer cell line MX-1 (ATCC) in a 3-day proliferation assay. MX-1 cells were maintained in RPMI supplemented with 10% FBS at 37 C.° and an atmosphere of 5% CO2. For compound testing, MX-1 cells were plated in 96-well black bottom plates at a density of 5000 cells/well in 90 μl of culture media and incubated at 37° overnight to allow cell adhesion and spreading. Compound dilution series were prepared in DMSO via a 3-fold serial dilution from 3 mM to 0.1 μM. The DMSO dilution series were then diluted 1:100 in phosphate buffered saline, and 10 μL of the resulted solution were added to the appropriate wells of the MX-1 cell plate. The final compound concentrations in the wells were 3, 1, 0.3, 0.1, 0.03, 0.01, 0.003, 0.001, 0.0003 and 0.0001 μM.
as §3, with “253-261).” for “253-261). The overall MSR was determined to be 2.1 and a moving MSR (last six run MSR overtime) has been <2.”

H1975 = assay: Proliferation panel assay, H1975; format: cell-based; settings: Homo sapiens, NCI-H1975, 120 h; NSCLC, H1975, 5 days; read-out: Cellular Proliferation EC50
Description: as §2, §3, §4

[4] = tested on: MV4-11 human AML xenograft; assay: Xenograft tumor growth inhibition assay, MV4-11; format: in vivo, mice; settings: MV4-11 xenograft
Description: as §1

GEO = assay: Proliferation panel assay, GEO; format: cell-based; settings: 120 h, Colon, 5 days, read-out: Cellular Proliferation EC50
Description: as §2, §3, §4

With `Cc1[nH]c(-c2cc(NS(C)(=O)=O)ccc2Oc2ccccc2)c2c1C(=O)CCC2` [Example 40, N-[3-(3-methyl-4-oxo-4,5,6,7-tetrahydro-2H-isoindol-1-yl)-4-phenoxyphenyl]methanesulfonamide] the “% TGI (tumor growth inhibition)” value ([1]; group 2, 100 mg/kg/day PO) was 78*** %, the “% TGD (tumor growth delay)” value ([1]; group 2, 100 mg/kg/day PO) was 29*** % and the “% TGI (tumor growth inhibition)” value ([1]; group 3, 30 mg/kg/day PO) was 48*** %. For the same compound, the “% TGD (tumor growth delay)” value ([1]; group 3, 30 mg/kg/day PO) was 22*** %, the “% TGI (tumor growth inhibition)” value ([1]; group 4, 10 mg/kg/day PO) was 18% and the “% TGD (tumor growth delay)” value ([1]; group 4, 10 mg/kg/day PO) was 17%. For the same compound, the “% TGI (tumor growth inhibition)” value ([1]; group 5, 100 mg/kg/day PO) was 80*** %, the “% TGD (tumor growth delay)” value ([1]; group 5, 100 mg/kg/day PO) was 28*** % and the “% TGI (tumor growth inhibition)” value ([1]; group 6, 20 mg/kg/day PO) was 30* %. The “% TGD (tumor growth delay)” value ([1]; group 6, 20 mg/kg/day PO) was 19* %, the pEC50 (786-0) was 6.86 and the pEC50 (EJ-1) was 6.23. The pEC50 (Raji) was 7.44, the “% TGI (tumor growth inhibition)” value ([2]; 10 mg/kg/day PO) was −1% and the “% TGI (tumor growth inhibition)” value ([2]; 30 mg/kg/day PO) was 14%. For the same compound, the “% TGI (tumor growth inhibition)” value ([2]; 100 mg/kg/day PO) was 52** %, the pEC50 (SKM1) was 7.41 and the pEC50 (BxPC3FP5) was 7.15. For the same compound, the pEC50 (OPM2) was 7.74, the pEC50 (A-375) was 6.77 and the pEC50 [3] was 6.80. For the same compound, the pEC50 (H1975) was 6.74, the mortality ([4]; 25 mg/kg/day PO, BID x 14) was “^b10% mortality” and the “% TGI (tumor growth inhibition)” value ([4]; 25 mg/kg/day PO, BID x 14, based on day 31) was 14^b %. For the same compound, the mortality ([4]; 50 mg/kg/day PO, BID x 14) was “^c30% mortality”, the “% TGI (tumor growth inhibition)” value ([4]; 50 mg/kg/day PO, BID x 14, based on day 31) was 42^c** % and the mortality ([4]; 100 mg/kg/day PO, BID 5 on, 3 off x 2) was “^d40% mortality”. For the same compound, the “% TGI (tumor growth inhibition)” value ([4]; 100 mg/kg/day PO, BID 5 on, 3 off x 2, based on day 31) was 67^d** % and the pEC50 (GEO) was 6.42.
